Results as given in ChEMBL document CHEMBL1144444, “Predictive three-dimensional quantitative structure-activity relationship of cytochrome P450 1A2 inhibitors” (J Med Chem, 2005).

Molecular target: T1, Cytochrome P450 1A2 (Homo sapiens, UniProt P05177)
T1 sequence (P05177 whole entry): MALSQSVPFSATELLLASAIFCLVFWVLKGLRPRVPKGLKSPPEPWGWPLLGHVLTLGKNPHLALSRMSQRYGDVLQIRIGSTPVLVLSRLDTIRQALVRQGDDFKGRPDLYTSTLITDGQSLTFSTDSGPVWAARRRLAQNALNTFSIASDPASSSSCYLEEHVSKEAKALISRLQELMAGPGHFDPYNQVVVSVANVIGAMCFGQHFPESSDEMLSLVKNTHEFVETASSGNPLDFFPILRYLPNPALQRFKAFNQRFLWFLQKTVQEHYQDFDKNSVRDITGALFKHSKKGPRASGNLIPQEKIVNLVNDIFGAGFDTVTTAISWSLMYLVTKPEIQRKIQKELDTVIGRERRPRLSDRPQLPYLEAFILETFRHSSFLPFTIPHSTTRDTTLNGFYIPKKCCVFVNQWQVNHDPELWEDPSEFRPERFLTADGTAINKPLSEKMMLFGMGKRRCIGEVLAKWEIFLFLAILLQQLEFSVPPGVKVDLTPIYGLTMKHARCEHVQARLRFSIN
Assay: Inhibitory concentration against recombinant human cytochrome P450 1A2

[1] = human, recombinant human CYP1A2

| Structure (SMILES) | IC50 [µM] | IC50 [1] [µM] |
| --- | --- | --- |
| Cc1cccc2c(C)cccc12 | 42 | – |
| Cc1ccc2cccc(C)c2c1 | 7.5 | – |
| CN1CCC[C@@H]1c1cccnc1 [R-NICOTINE] | 4100 | – |
| Cc1ccc(C)c2ccccc12 | 3.6 | – |
| Oc1ccc2ccccc2c1 [BETANAPHTHOL] | 17 | – |
| Cc1ccc2ccccc2n1 [QUINALDINE] | 40 | – |
| c1ccc(-c2ccccc2)cc1 [BIPHENYL] | 160 | – |
| Cc1cccc2ccccc12 | 110 | – |
| Cc1cc(C)c2ccccc2n1 | 2.4 | – |
| Cc1ccc2cc(C)ccc2c1 | 52 | – |
| CCCCC1CCCCC1 [BUTYLCYCLOHEXANE] | 55 | – |
| c1ccc2c(c1)CCO2 | 1200 | – |
| Cc1cc2ccccc2cn1 | 21 | – |
| CCC1CCC(=O)O1 (stereo unspecified) | 9900 | – |
| Cc1ccc2c(C)cccc2c1 | 25 | – |
| Cc1ccc2ccccc2c1 | 120 | – |
| c1ccc2c(c1)CCC2 | 550 | – |
| CCCCc1ccccc1 [BUTYLBENZYL] | 3700 | – |

| Structure (SMILES) | IC50 [µM] | IC50 [1] [µM] |
| --- | --- | --- |
| c1ccc2ccccc2c1 | 700 | – |
| Clc1cccc2ccccc12 | 50 | – |
| Cc1ccc2ccc(C)cc2c1 | 65 | – |
| O=C1CCC(c2ccccc2)O1 (stereo unspecified) | 2300 | – |
| COC1=CC(=O)OC1 | – | > 40000 |
| O=C1CCCCCO1 | – | > 40000 |
| COc1ccc(C=O)cc1 | 270 | – |
| O=C1Cc2ccccc2O1 | 260 | – |
| CN1C(=O)CCC1c1cccnc1 (single isomer, unassigned) [COTININE] | 5400 | – |
| Cc1ccc(CCN)cc1 | 14 | – |
| Cc1cnc2ccccc2c1 | 13 | – |
| O=c1[nH]c2ccccc2o1 [BENZOXAZOLINONE] | 370 | – |
| Clc1ccccc1-c1ccccc1 | 230 | – |
| Fc1ccc2ccccc2c1 | 49 | – |
| Cc1cc(C)oc(=O)c1 | 4500 | – |
| Oc1cccc2ccccc12 [1-NAPHTHOL] | 3.2 | – |
| CCc1ccc2ccccc2c1 | 19 | – |
| Clc1ccc(-c2ccccc2)cc1 | 49 | – |
